From patent publication US20260232642A1, “RNA-BINDING MOLECULES WITH A SMALL CORE SCAFFOLD (R-SCORE) AND USES THEREOF” (Max-Planck-Gesellschaft zur Förderung der Wissenschaften …, priority 2022, published 2026)
Entries after “also recorded” stand apart in the source; their conditions may differ. Read-outs that look alike come from different tables or passages of the source.

What was measured:
MCF-7 cells = test: MTT assay, MCF-7; assay type: cell-based, human; conditions: breast cancer cell line, read-out: Cell lines IC50 [μM] MCF-7
Method: (§1) MAD-MB-231, MCF-7 and JAR cells were cultured in Dulbecco's modified Eagle's (DMEM) medium supplemented with 10% Fetal Bovine Serum (FBS), 100 u/mL penicillin-streptomycin. Jurkat, Molt-4 and Ramos cells were cultured in Roswell Park Memorial Institute (RPMI) 1640 medium with 10% Fetal Bovine Serum (FBS), 100 u/mL penicillin-streptomycin. All cell lines grown in an incubator with humidified 5% CO2 at 37° C.
(§2) Jurkat, Molt-4 and Ramos cells were collected and seeded into 96-well plates at a density of 8000-10000 per well and treated with compounds. MCF-7, MDA-MB-231 and JAR cells were collected and seeded into 96-well plates at a density of 2000-3000 per well and cultured overnight to adherent before treat with compounds. After exposed to increasing concentrations of compounds for 72 h, the cells in each well were mixed with 20 μL of 5 mg/ml MTT (3-(4,5-dimethylthiazol-2-yl)-2,5-diphenyltetrazolium bromide) for 2 h, then add 50 μL of 20% SDS/0.01 M HCl incubated overnight, and detected the absorbance at a wavelength of 570 nm.
(§3) Inhibition rate was calculated using the equation: […]
(§4) The IC50 values were calculated by using GraphPad Prism 9 software fitting to a dose-response inhibition equation.

Jurkat cells = test: MTT assay, Jurkat; assay type: cell-based, human; conditions: 72 h, acute leukemia cell line, read-out: Cell lines IC50 [μM] Jurkat
Method: as §1, §2, §3, §4

MDA-MB-231 cells [1] = test: Colony formation assay; assay type: cell-based, human; conditions: for antiproliferation activity against MDA-MB-231 cell line: 6 days, crystal violet, vs DMSO; for antiproliferation activity compared to other selected compounds: MDA-MB-231, ranking among A10, A11, B2, B5, B8, B9; for inhibition of MDA-MB-231 cell proliferation at 10 μM: concentration of 10 μM
Method: as §1
MDA-MB-231 cells were collected and seeded into 24-well plates with the density of 1000 cells per well and cultured overnight. The medium was exchanged and supplemented with different compounds and concentrations every three days. 6 days later, cells were washed with PBS and fixed by 4% paraformaldehyde solution. After 15 min fix, the paraformaldehyde solution was washed with PBS and was then stained with 0.1% (w/v) crystal violet. After 15 min, the cells were washed and photographed.

Ramos cells = test: MTT assay, Ramos; assay type: cell-based, human; conditions: 72 h, Burkitt lymphoma cell line, read-out: Cell lines IC50 [μM] Ramos
Method: as §1, §2, §3, §4

MDA-MB-231 cells [2] = test: MTT assay, MDA-MB-231; assay type: cell-based, human; conditions: breast cancer cell line, read-out: Cell lines IC50 [μM] MDA-MB-231
Method: as §1, §2, §3, §4

[3] = test system: precursor microRNA-21 hairpin (pre-miR-21 hp); test: Differential scanning fluorimetry (DSF), pre-miR-21 hairpin; assay type: binding; conditions: 60 uM compound, 1 μM hairpin in PBS, Tm of compound minus Tm of DMSO control
Method: (§5) To measure the binding between compounds and precursor microRNA-21 hairpin (pre-miR-21 hp) or precursor microRNA-17 hairpin (pre-miR-17 hp), DSF was performed as previously described with modification (ACS Chem. Biol. 2017, 12, 2, 435-443). Precursor microRNA hairpin was dissolved in PBS and annealed by briefly heating to 95° C. for 3 min and slowly cooling to rt. Assay was performed in duplicates using white qPCR 8-strips (VWR) with a total volume of 10 μL in PBS. The total reaction consisted of 1 μM precursor microRNA hairpin, 1% test compound (DMSO dilution) and 2×SYBR GreenII (Thermo Fisher Scientific). Compounds were incubated with precursor microRNA hairpin at for 10 min at rt, then SYBR GreenII was added to each well, mixed and incubated 10 min at rt. The strips were spined and loaded to the RT-PCR detection system (BIO-RAD CFX Connect), the fluorescence intensity was obtained every 1° C. for 30 s in the range of 20° C. to 80° C.
(§6) The melting temperature (Tm) was determined by the maximum of the negative of the first derivative of the fluorescence vs temperature melting curves. The ΔTm was calculated by the Tm value of compound subtract the Tm value of the DMSO control.

JAR cells = test: MTT assay, JAR; assay type: cell-based, human; conditions: 72 h, choriocarcinoma cell line, read-out: Cell lines IC50 [μM] JAR
Method: as §1, §2, §3, §4

Molt-4 cells = test: MTT assay, Molt-4; assay type: cell-based, human; conditions: acute leukemia cell line, read-out: Cell lines IC50 [μM] Molt-4
Method: as §1, §2, §3, §4

[4] = test system: precursor microRNA-17 hairpin (pre-miR-17 hp); test: Differential scanning fluorimetry (DSF), pre-miR-17 hairpin; assay type: binding; conditions: 60 uM compound, 1 μM hairpin in PBS, Tm of compound minus Tm of DMSO control
Method: as §5, §6

Row | IC50 (MCF-7 cells; Homo sapiens, MCF7, 72 h) | IC50 (Jurkat cells; Homo sapiens, Jurkat) | IC50 (Ramos cells; Homo sapiens, Ramos) | IC50 (MDA-MB-231 cells [2]; Homo sapiens, MDA-MB-231, 72 h) | IC50 (Molt-4 cells; Homo sapiens, MOLT-4, 72 h) | IC50 (Jurkat cells) | IC50 (Ramos cells) | IC50 (Molt-4 cells; 72 h) | IC50 (MCF-7 cells; 72 h) | IC50 (MDA-MB-231 cells [2]; 72 h) | SMILES | antiproliferation activity against MDA-MB-231 cell line (MDA-MB-231 cells [1]) | ΔTm (pre-miR-21 hp) @60 uM [° C.] [3] | IC50 (JAR cells; Homo sapiens) | ΔTm (pre-miR-17 hp) @60 uM [° C.] [4] | antiproliferation activity compared to other selected compounds (MDA-MB-231 cells [1]) | inhibition of MDA-MB-231 cell proliferation at 10 μM (MDA-MB-231 cells [1]) | IC50 (JAR cells)
1 | > 20 µM | 7.51 µM | 8.87 µM | > 20 µM | 1.6 µM |  |  |  |  |  | C=CCN1C(C#N)C(c2ccc(-c3ccc(C(F)(F)F)cc3)cc2)C1Cn1cc(-c2ccccn2)nn1 (centres unmarked) [Compound A10, 1-allyl-4-((4-(pyridin-2-yl)-1H-1,2,3-triazol-1-yl)methyl)-3-(4′-(trifluoromethyl)-[1,1′-biphenyl]-4-yl) azetidine-2-carbonitrile] | can inhibit MDA-MB-231 cells proliferation; also recorded: exhibited antiproliferation activity against MDA-MB-231 cell line in a dose-dependent manner | 0 °C | > 20 µM | 0 °C |  |  | 
2 |  |  |  |  |  | 4.49 µM | 3.03 µM | 4.67 µM |  |  | CNc1nc(N2CC(c3ccc(-c4c(C)noc4C)cc3)C2C#N)nc2ccccc12 (centres unmarked) [Compound B2, 3-(4-(3,5-dimethylisoxazol-4-yl)phenyl)-1-(4-(methylamino)quinazolin-2-yl) azetidine-2-carbonitrile] | can inhibit MDA-MB-231 cells proliferation; also recorded: exhibited antiproliferation activity against MDA-MB-231 cell line in a dose-dependent manner |  |  |  | better antiproliferation ability; also recorded: most potent antiproliferation activity | fully inhibited | 
3 | 5.61 µM | 5.9 µM | 2.8 µM | 6.95 µM | 8.42 µM |  |  |  |  |  | CNc1nc(N2CC(c3ccc(-c4ccc(C(F)(F)F)cc4)cc3)C2C#N)nc2ccccc12 (centres unmarked) [Compound B5, 1-(4-(methylamino)quinazolin-2-yl)-3-(4′-(trifluoromethyl)-[1,1′-biphenyl]-4-yl) azetidine-2-carbonitrile] | can inhibit MDA-MB-231 cells proliferation; also recorded: exhibited antiproliferation activity against MDA-MB-231 cell line in a dose-dependent manner | 0 °C | 1.44 µM | 0 °C | most potent antiproliferation activity | fully inhibited | 
4 |  |  |  |  |  | 3.17 µM | 5.54 µM | 4.14 µM | 1.78 µM | 4.12 µM | CNc1nc(N2CC(c3ccc(-c4ccc5nc[nH]c5c4)cc3)C2C#N)nc2ccccc12 (centres unmarked) [Compound B9, 3-(4-(1H-benzo[d]imidazol-6-yl)phenyl)-1-(4-(methylamino)quinazolin-2-yl) azetidine-2-carbonitrile] | can inhibit MDA-MB-231 cells proliferation; also recorded: exhibited antiproliferation activity against MDA-MB-231 cell line in a dose-dependent manner | −1 °C |  | −1 °C |  |  | 1.82 µM
